Data taken from patent US20080269241A1, “BICYCLIC AMINOPROPYL TETRAHYDRO-PYRAZOLO-PYRIDINE MODULATORS OF CATHEPSIN S” (priority 2007, published 2008).

Molecular target: T1, human cathepsin S (CatS) (Homo sapiens, UniProt P25774)
T1 construct: made in house; host or cells: baculovirus system (insect cells)
Assay: Recombinant human cathepsin S (CatS) fluorogenic substrate inhibition assay
Type: biochemical
Details: recombinant human CatS, 10 μM Z-Valine-Valine-Arginine-AMC, pH 5.0; average of results obtained; read-out: CatS IC50
Experimental: Recombinant human cathepsin S (CatS) was expressed in the baculovirus system and purified in one step with a thiopropyl-sepharose column. […] The assay is run in 150 mM sodium acetate pH 5.0 containing 1.5 mM DTT and 150 mM NaCl. […] Measurements are taken every min for 20 min. The rate is calculated from the slope of the increase in fluorescence and the percent inhibition is calculated from this.

T1 sequence (P25774 115-331): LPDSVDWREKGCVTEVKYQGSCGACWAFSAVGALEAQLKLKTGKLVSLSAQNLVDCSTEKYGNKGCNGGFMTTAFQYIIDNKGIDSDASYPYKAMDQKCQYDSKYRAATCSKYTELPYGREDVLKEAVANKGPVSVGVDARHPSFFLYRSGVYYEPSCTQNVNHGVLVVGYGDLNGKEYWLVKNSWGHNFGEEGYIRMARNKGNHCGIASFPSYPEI

SMILES | IC50 [nM]
CS(=O)(=O)N1CCc2c(c(-c3ccc(C(F)(F)F)c(CNC(=O)c4ccc(CO)cc4)c3)nn2CC(O)CN2CCC(N3CCCC3=O)CC2)C1 (stereo not shown) [Example 107, 4-Hydroxymethyl-N-[5-(1-{2-hydroxy-3-[4-(2-oxo-pyrrolidin-1-yl)-piperidin-1-yl]-propyl}-5-methanesulfonyl-4,5,6,7-tetrahydro-1H-pyrazolo[4,3-c]pyridin-3-yl)-2-trifluoromethyl-benzyl]-benzamide] | 70
CC(C)=CC(=O)NCc1cc(-c2nn(CC(O)CN3CCC(n4cn[nH]c4=O)CC3)c3c2CN(S(C)(=O)=O)CC3)ccc1C(F)(F)F (stereo not shown) [Example 268, 3-Methyl-but-2-enoic acid 5-(1-{2-hydroxy-3-[4-(5-oxo-1,5-dihydro-[1,2,4]triazol-4-yl)-piperidin-1-yl]-propyl}-5-methanesulfonyl-4,5,6,7-tetrahydro-1H-pyrazolo[4,3-c]pyridin-3-yl)-2-trifluoromethyl-benzylamide] | 10
CN(C)CC(=O)NCc1cc(-c2nn(CCCN3CCC(N4CCCC4=O)CC3)c3c2CN(S(C)(=O)=O)CC3)ccc1C(F)(F)F [Example 38, 2-Dimethylamino-N-[5-(5-methanesulfonyl-1-{3-[4-(2-oxo-pyrrolidin-1-yl)-piperidin-1-yl]-propyl}-4,5,6,7-tetrahydro-1H-pyrazolo[4,3-c]pyridin-3-yl)-2-trifluoromethyl-benzyl]-acetamide] | 1540
CS(=O)(=O)N1CCc2c(c(-c3ccc(C(F)(F)F)c(CNC(=O)C4CC4)c3)nn2CC(O)CN2CCC(N3CCCC3=O)CC2)C1 (stereo not shown) [Example 276, Cyclopropanecarboxylic acid 5-(1-{2-hydroxy-3-[4-(2-oxo-pyrrolidin-1-yl)-piperidin-1-yl]-propyl}-5-methanesulfonyl-4,5,6,7-tetrahydro-1H-pyrazolo[4,3-c]pyridin-3-yl)-2-trifluoromethyl-benzylamide] | 90
COc1ccccc1C1CCN(CC(O)Cn2nc(-c3ccc(C(F)(F)F)c(CNC(=O)C=C(C)C)c3)c3c2CCN(S(C)(=O)=O)C3)CC1 (stereo not shown) [Example 264, 3-Methyl-but-2-enoic acid 5-(1-{2-hydroxy-3-[4-(2-methoxy-phenyl)-piperidin-1-yl]-propyl}-5-methanesulfonyl-4,5,6,7-tetrahydro-1H-pyrazolo[4,3-c]pyridin-3-yl)-2-trifluoromethyl-benzylamide] | 10
CS(=O)(=O)N1CCc2c(c(-c3ccc(C(F)(F)F)c(CNC(=O)c4ccc(F)cc4)c3)nn2CC(O)CN2CCC(N3CCCC3=O)CC2)C1 (stereo not shown) [Example 17, 4-Fluoro-N-[5-(1-{2-hydroxy-3-[4-(2-oxo-pyrrolidin-1-yl)-piperidin-1-yl]-propyl}-5-methanesulfonyl-4,5,6,7-tetrahydro-1H-pyrazolo[4,3-c]pyridin-3-yl)-2-trifluoromethyl-benzyl]-benzamide] | 20
CS(=O)(=O)N1CCc2c(c(-c3ccc(Cl)c(NC(=O)c4ccc([N+](=O)[O-])cc4)c3)nn2CCCN2CCN(c3cccc(Cl)c3)CC2)C1 [Example 226, N-[2-Chloro-5-(1-{3-[4-(3-chloro-phenyl)-piperazin-1-yl]-propyl}-5-methanesulfonyl-4,5,6,7-tetrahydro-1H-pyrazolo[4,3-c]pyridin-3-yl)-phenyl]-4-nitro-benzamide] | 760
CS(=O)(=O)N1CCc2c(c(-c3ccc(C(F)(F)F)c(CNC(=O)N4CCOCC4)c3)nn2CCCN2CCC(N3CCCC3=O)CC2)C1 [Example 45, Morpholine-4-carboxylic acid 5-(5-methanesulfonyl-1-{3-[4-(2-oxo-pyrrolidin-1-yl)-piperidin-1-yl]-propyl}-4,5,6,7-tetrahydro-1H-pyrazolo[4,3-c]pyridin-3-yl)-2-trifluoromethyl-benzylamide] | 80
CS(=O)(=O)N1CCc2c(c(-c3ccc(C(F)(F)F)c(CNC(=O)Cn4cncn4)c3)nn2CCCN2CCC(N3CCCC3=O)CC2)C1 [Example 188, N-[5-(5-Methanesulfonyl-1-{3-[4-(2-oxo-pyrrolidin-1-yl)-piperidin-1-yl]-propyl}-4,5,6,7-tetrahydro-1H-pyrazolo[4,3-c]pyridin-3-yl)-2-trifluoromethyl-benzyl]-2-[1,2,4]triazol-1-yl-acetamide] | 590
CS(=O)(=O)N1CCc2c(c(-c3ccc(C(F)(F)F)c(CNC(=O)c4ccc(-c5ccccn5)s4)c3)nn2CC(O)CN2CCC(N3CCCC3=O)CC2)C1 (stereo not shown) [Example 121, 5-Pyridin-2-yl-thiophene-2-carboxylic acid 5-(1-{2-hydroxy-3-[4-(2-oxo-pyrrolidin-1-yl)-piperidin-1-yl]-propyl}-5-methanesulfonyl-4,5,6,7-tetrahydro-1H-pyrazolo[4,3-c]pyridin-3-yl)-2-trifluoromethyl-benzylamide] | 150
Cc1ncsc1C(=O)NCc1cc(-c2nn(CC(O)CN3CCC(N4CCCC4=O)CC3)c3c2CN(S(C)(=O)=O)CC3)ccc1C(F)(F)F (stereo not shown) [Example 137, 4-Methyl-thiazole-5-carboxylic acid 5-(1-{2-hydroxy-3-[4-(2-oxo-pyrrolidin-1-yl)-piperidin-1-yl]-propyl}-5-methanesulfonyl-4,5,6,7-tetrahydro-1H-pyrazolo[4,3-c]pyridin-3-yl)-2-trifluoromethyl-benzylamide] | 410
CC(=O)c1ccc(C(=O)NCc2cc(-c3nn(CC(O)CN4CCC(N5CCCC5=O)CC4)c4c3CN(S(C)(=O)=O)CC4)ccc2C(F)(F)F)s1 (stereo not shown) [Example 109, 5-Acetyl-thiophene-2-carboxylic acid 5-(1-{2-hydroxy-3-[4-(2-oxo-pyrrolidin-1-yl)-piperidin-1-yl]-propyl}-5-methanesulfonyl-4,5,6,7-tetrahydro-1H-pyrazolo[4,3-c]pyridin-3-yl)-2-trifluoromethyl-benzylamide] | 80
CS(=O)(=O)N1CCc2c(c(-c3ccc(C(F)(F)F)c(CNC(=O)CO)c3)nn2CCCN2CCC(N3CCCC3=O)CC2)C1 [Example 187, 2-Hydroxy-N-[5-(5-methanesulfonyl-1-{3-[4-(2-oxo-pyrrolidin-1-yl)-piperidin-1-yl]-propyl}-4,5,6,7-tetrahydro-1H-pyrazolo[4,3-c]pyridin-3-yl)-2-trifluoromethyl-benzyl]-acetamide] | 1800
CS(=O)(=O)N1CCc2c(c(-c3ccc(Cl)c(NS(=O)(=O)c4ccccc4)c3)nn2CCCN2CCN(c3cccc(Cl)c3)CC2)C1 [Example 204, N-[2-Chloro-5-(1-{3-[4-(3-chloro-phenyl)-piperazin-1-yl]-propyl}-5-methanesulfonyl-4,5,6,7-tetrahydro-1H-pyrazolo[4,3-c]pyridin-3-yl)-phenyl]-benzenesulfonamide] | 700
CS(=O)(=O)N1CCc2c(c(-c3ccc(C(F)(F)F)c(CNC(=O)c4ccncc4)c3)nn2CC(O)CN2CCC(N3CCCC3=O)CC2)C1 (stereo not shown) [Example 128, N-[5-(1-{2-Hydroxy-3-[4-(2-oxo-pyrrolidin-1-yl)-piperidin-1-yl]-propyl}-5-methanesulfonyl-4,5,6,7-tetrahydro-1H-pyrazolo[4,3-c]pyridin-3-yl)-2-trifluoromethyl-benzyl]-isonicotinamide] | 240
CS(=O)(=O)N1CCc2c(c(-c3ccc(C(F)(F)F)c(CNC(=O)c4ccccn4)c3)nn2CC(O)CN2CCC(N3CCCC3=O)CC2)C1 (stereo not shown) [Example 53, Pyridine-2-carboxylic acid 5-(1-{2-hydroxy-3-[4-(2-oxo-pyrrolidin-1-yl)-piperidin-1-yl]-propyl}-5-methanesulfonyl-4,5,6,7-tetrahydro-1H-pyrazolo[4,3-c]pyridin-3-yl)-2-trifluoromethyl-benzylamide] | 190
